Patent US20100136603A1, “KIT AND A METHOD FOR EVALUATING TOXICITY USING SPORE RELEASE BY THE GREEN ALGA ULVA” (priority 2008, published 2010)

System: Ulva pertusa Kjellman
Conditions: for order of toxicity of the heavy metal, estimated by EC50: rank order among heavy metals, spore release, 96 hours
Protocol: The present inventors collected Ulva pertusa Kjellman from the coast of Ahnin in Korea, and the leaf (thallus) of Ulva pertusa Kjellman was cut to have a coin shape having a diameter of 6 mm, and dispensed in the plastic cell plate containing 10 ml artificial sea water (35%) medium (Coralife, Energy Savers, California. USA) supplemented with 1 mM KNO3 and 0.1 mM K2HPO4.
The toxicity test was then carried out by adding toxic materials (toxicants) into the medium, keeping the other environmental conditions constant. The used toxic materials and the target concentration are described in the following Table 1.
After cultivated for 96 hours, the thallus having the coin shape was collected, and the area with white color was measured by using the microscope (Axioscope) having a magnification of 400× and the image analysis system (MV200, Samsung, Korea).
The mother liquid of TBTO was prepared in acetone that was mixed with the sea water (0.01%); here an acetone control group in the same concentration was also tested. The toxicities of volatile organic compounds (VOC) [acetone, ethanol, formalin and methanol) were tested by adding aqueous volatile organic compounds (VOC) to the medium to achieve the target concentration.

Compound	order of toxicity of the volatile organic compound (VOC) (in vivo)	half effective concentration (EC50) (in vivo)	order of toxicity of the heavy metal, estimated by EC50
CC(C)=O [acetone]	formaline>methanol>ethanol>acetone	–	–
C=O [formaline]	formaline>methanol>ethanol>acetone	0.788 μl/L	–
[Cd] [Cd, cadmium]	–	–	Cu>Cd>Zn>Pb
CO [methanol]	formaline>methanol>ethanol>acetone	–	–
[Zn] [Zn, zinc]	–	–	Cu>Cd>Zn>Pb
CCO [ethanol]	formaline>methanol>ethanol>acetone	–	–
[Cu] [Cu, copper]	–	–	Cu>Cd>Zn>Pb
